Measurements published in US20190262431A1, “CBL-FAMILY INHIBITOR COMPRISING A CBL-FAMILY TKB DOMAIN BINDING PEPTIDE FOR THE PREVENTION OR TREATMENT OF DISEASES” (IMBA - INSTITUT FÜR MOLEKULARE BIOTECHNOLOGIE GMBH, priority 2016, published 2019).
Non-standard residues stand in square brackets, D forms with d. Residues, ends and D or L forms follow the SMILES beside them. No end group written: not given here. *: point of attachment. pY = N[C@@H](Cc1ccc(OP(=O)(O)O)cc1)C(=O)O; Cbz = O=C(OCc1ccccc1)*

Experiments:
[1] = system: murine CD4+ T cells; test: Murine T cell proliferation assay; assay type: cell-based, mouse; conditions: for proliferative response of cblb Δ/Δ CD4+ T cells: CD3 or CD3 plus CD28 antibodies, versus untreated cells; for proliferative response of cblb Δ/Δ CD4+ T cells / proliferative response of cblb+/+ CD4+ T cells: 3 days; for proliferative response of cblb+/+ CD4+ T cells: plate bound CD3 or CD3 plus soluble CD28 antibodies, versus no peptide
Protocol: Murine CD4+ T cells were purified from pooled spleens and lymph nodes using MACS technology (Miltenyi Biotec). […] Purified T cells were labeled with the cell proliferation dye eFluor 670 (eBioscience) and cultured in IMDM cell culture medium (Gibco), supplemented with 10% fetal bovine serum (Sigma), L-Glutamine (Thermo Fisher), Penicillin and Streptomycin (Thermo Fisher), in the presence of 5 ng/ml of recombinant IL-2 (Biolegend) and the indicated concentrations of peptide. After 3 days, cells were stained with the fixable viability dye eFluor 780 (Thermo Fisher), and stained with a CD4 antibody (RM4-5, Brilliant Violet 711, Biolegend). Cells were analyzed with a BD LSR Fortessa II flow cytometer (Becton Dickinson), subsequently, and data were analyzed using the FlowJo v10.0.8 software (Tree Star).

[2] = system: phosphorylated Syk; test: Western blotting of Syk in Candida albicans stimulated BM-DC with MG132; assay type: cell-based, mouse; conditions: MG132 10 μM
Protocol: (§1) BM-M and BM-DC were stimulated with C. albicans (strain SC5314), Zymosan (Invivogen), Curdlan (Invivogen), TDM (Invivogen), CpG (Invivogen), LPS (Invivogen), or C. albicans hyphae. For inhibition experiments cells were treated with the Syk inhibitor R406 (Selleckchem), anti-Dectin-1 antibody (Invivogen), MG132 (Calbiochem), or Dynasore (Sigma-Aldrich), 30 min prior to stimulation (MOI: Immune cell: C. albicans=1:2). Fungal isolates of Candida krusei, Candida glabrata, and Candida dubliniensis were kindly provided by the Allgemeines Krankenhaus Vienna (AKH). Fungal isoates were tested by PCR to verify the respective species.
Western blotting was performed according to standard protocols. Blots were blocked for 1 hour with 5% bovine serum albumin in 1×TBS/0.1% Tween-20, or 4% BSA in 1×TBS/0.1% Tween-20 for phosphorylated epitopes, followed by overnight incubation at 4° C. with primary antibodies. Subsequently, blots were washed three times in 1×TBS/0.1% Tween-20 for 15 min, followed by incubation with HRP-conjugated secondary antibodies (1:2500; GE Healthcare # NA9340V) for 45 min at room temperature, washed three times in 1×TBS/0.1% Tween-20 for 15 min and visualized using enhanced chemiluminescence (ECL Plus, Pierce). […] Precipitates were analyzed by Western blotting using the indicated antibodies. […] Precipitates were analyzed by Western blotting with the indicated antibodies.

[3] = system: BM-DC; test: Killing assay (fungicidal activity against Candida albicans); assay type: cell-based, mouse; conditions: for BM-DC mediated Candida albicans killing in the presence of inhibitor: inhibitor added 30 min prior to stimulation
Protocol: To assess the fungicidal activity, the indicated immune cells were plated in replicates at a density of 1×10^5 cells/well in 96-well plates. Cells were incubated with Candida albicans at a multiplicity of infection of 1:500 for 24 h. After incubation, phagocytes were fixed by the addition of paraformaldehyde at a final concentration of 4%. Subsequently, Candida albicans were stained with Crystal Violet (Sigma) and killing was assessed by a comparison of colony numbers in wells with or without phagocytes.
as §1

[4] = system: BM-DC; test: Cytokine secretion by Candida albicans stimulated BM-DC (ELISA); assay type: cell-based, mouse; conditions: 18 h
Protocol: Cytokine secretion by cell culture supernatants or in the peritoneal lavage was assessed with ELISA kits purchased from eBioscience (IL-1β, TNF, IL-6, IL-12, IL-23) or R&D Systems (IL-1Ra) according to the manufacturer's instructions. Production of reactive oxygen species (ROS) was measured with as assay using luminol as the probe in real-time over 90 min as described previously (Bourgeois et al., 2009). Caspase-8 activity was assessed using the CaspGLOW assay (Promega) according to the manufacturer's instructions.
as §1

[5] = system: B16-SIY melanoma cells; test: B16-SIY in vivo tumor model; set-up: species or system mouse; conditions: C57Bl/6 mice; 100 μg i.p. every other day
Protocol: B16-SIY tumor cells as described in (Spranger, 2014) were cultured in DMEM cell culture media (Gibco) supplemented with 10% fetal bovine serum (Sigma), L-Glutamine (Thermo Fisher), Penicillin and Streptomycin (Thermo Fisher). 10^6 tumor cells were transplanted intradermally into C57Bl/6 mice. Mice were injected intraperitoneally with 100 μg of the indicated peptides or vehicle control every other day starting 24 h after tumor cell inoculation. Bodyweight and tumor volume were measured at the indicated time points, subsequently.

[6] = system: human CD4+ T cells; test: Human T cell assays (CFSE proliferation, IFN-γ ELISA, CD69), CD4+ T cells; assay type: cell-based
Protocol: (§2) Peripheral blood mononuclear cells (PBMC) were purified from human blood using a Lymphoprep™ PBMC isolation kit (Stemcell Technologies), according to the manufacturer's instructions. Human CD4+ or CD8+ T cells were purified from PBMC using CD4 or CD8 MicroBeads (Miltenyi Biotec), respectively, and MACS technology (Miltenyi Biotec). For proliferation assays, flat-bottom 96-well plates were coated with CD3 (OKT3, 0.1 μg/ml) and CD28 (CD28.2, 0.1 μg/ml) antibodies in PBS at 37 degrees C. for 2 h. To monitor proliferative expansion, assays were carried out with carboxyfluorescein succinimidyl ester (CFSE; eBioscience) labeled T cells. T cells were cultured in X-VIVO 15 chemically defined, serum free hematopoietic cell medium (Lonza), with the indicated concentrations of peptide or vehicle control. After 72 h […], cells were labeled with antibodies against CD4 (RPA-T4, Brilliant Violet 510 labeled, Biolegend) or CD8 (RPA-T8, APC-eFluor 780 labeled, eBioscience), and CD69 (FN50, PE/Cy7 labeled, Biolegend), and analyzed on a Beckman Coulter Gallios flow cytometer. Data were analyzed using Beckman Coulter Kaluza software. IFN-γ secretion into cell culture supernatants of the proliferation assays was determined by enzyme-linked immunosorbent assays (ELISA) according to the manufacturer's (BD Biosciences) instructions.

[7] = system: BM-DC; test: ROS production by BM-DC co-cultured with Candida albicans (luminol assay); assay type: cell-based, mouse; conditions: Cbl-b+/+ BM-DC; 100 μM peptide; versus no peptide
Source text: BM-DC or BM-M were obtained by differentiation from bone marrow precursor cells.

[8] = system: Candida albicans; test: Systemic (intravenous) Candida albicans infection of mice; assay type: in vivo, mouse; conditions: control peptides versus untreated control cohort
Protocol: 8-10 week old mice were infected with 10^5 colony forming units (CFU) of C. albicans (strain SC5314), 10^5 colony forming units (CFU) of C. dubliniensis, or 10^5 CFUs of Listeria monocytogenes (strain EGD) intravenously. C. albicans CFUs were assessed from various organs as described (Wirnsberger et al., 2014). For clodronate or PBS liposome treatment experiments, mice were injected intraperitoneally with 100 ul/10 g mouse weight of liposomes both 24 h before and 24 h after intravenous C. albicans infections. Clodronate or PBS control liposomes were obtained from clodronateliposomes.org, and handled according to the manufacturer's instructions.

[9] = system: human CD8+ T cells; test: Human T cell assays (CFSE proliferation), CD8+ T cells; assay type: cell-based; conditions: plate bound CD3/CD28 antibodies; 3 days; CFSE dilution
Protocol: as §2

Q: With “KIKKTKKKGRKKIKKTKKKGRKSTVSFNPYEPTGGPWG (KIKKTKKKGRKKIKKTKKKGRKSTVSFNP[pY]EPTGGPWG; listed as Mus musculus) [M3]” as the compound, how does the “proliferative response of cblb Δ/Δ CD4+ T cells” value [1] read?
A: The value was “marked increase”.

Q: And the “effect on proliferation under suboptimal stimulatory conditions” value ([1]; low concentrations of CD3, with or without CD28 co-stimulation)?
A: The value was “more pronounced effects”.

Q: What about the “proliferative response of cblb+/+ CD4+ T cells” value [1] of the same compound?
A: Its value is “dose dependent increase”.

Q: For `CC(C)C[C@@H](C=O)NC(=O)[C@H](CC(C)C)NC(=O)[C@H](CC(C)C)NC(=O)OCc1ccccc1` [MG132] (Cbz-Leu-Leu-Leu-aldehyde), which “levels of phosphorylated Syk” value ([2]; Cbl-b Δ/Δ BM-DC stimulated with Candida albicans) is on record?
A: Its value is “did not change”.

Q: And the “phosphorylated Syk in lysates” value ([2]; Cbl-b+/+ BM-DC stimulated with Candida albicans)?
A: Its value is “increase”.

Q: What does the source list for `COc1cc(Nc2ncc(F)c(Nc3ccc4c(n3)NC(=O)C(C)(C)O4)n2)cc(OC)c1OC` [R406]?
A: BM-DC mediated Candida albicans killing in the presence of inhibitor [3]: almost completely abrogated; IL-1β secretion by Candida albicans stimulated BM-DC ([4]; BM-DC of all three genotypes): almost completely abrogated; release of IL-6 by Candida albicans stimulated BM-DC ([4]; all three genotypes): almost completely abrogated; release of TNF by Candida albicans stimulated BM-DC ([4]; all three genotypes): almost completely abrogated

Q: `CC[C@H](C)[C@H](NC(=O)[C@H](CCCCN)NC(=O)[C@@H](NC(=O)[C@H](CCC(N)=O)NC(=O)[C@H](CCCNC(=N)N)NC(=O)[C@@H](N)CC(=O)O)[C@@H](C)CC)C(=O)N[C@@H](Cc1c[nH]c2ccccc12)C(=O)N[C@@H](Cc1ccccc1)C(=O)N[C@@H](CCC(N)=O)C(=O)N[C@@H](CC(N)=O)C(=O)N[C@@H](CCCNC(=N)N)C(=O)N[C@@H](CCCNC(=N)N)C(=O)N[C@@H](CCSC)C(=O)N[C@@H](CCCCN)C(=O)N[C@@H](Cc1c[nH]c2ccccc12)C(=O)N[C@@H](CCCCN)C(=O)N[C@@H](CCCCN)C(=O)N[C@@H](CO)C(=O)N[C@H](C(=O)N1CCC[C@H]1C(=O)N[C@@H](CC(N)=O)C(=O)N[C@@H](Cc1ccccc1)C(=O)NCC(=O)N[C@H](C(=O)N[C@@H](Cc1ccc(OP(=O)(O)O)cc1)C(=O)NCC(=O)N[C@H](C(=O)N[C@@H](CO)C(=O)N1CCC[C@H]1C(=O)N[C@@H](Cc1c[nH]c2ccccc12)C(=O)NCC(=O)N1CCC[C@H]1C(=O)N[C@@H](CCC(=O)O)C(=O)O)[C@@H](C)O)C(C)C)[C@@H](C)O` [M2] was tested. Which bodyweight gain [5] did it give?
A: The bodyweight gain was “did not affect”.

Q: Which results are given for “KIKKTKKKGRKKIKKTKKKGRKSTPNFGVYGTSPWGPE (KIKKTKKKGRKKIKKTKKKGRKSTPNFGV[pY]GTSPWGPE; listed as Mus musculus) [M4]”?
A: proliferative response of cblb Δ/Δ CD4+ T cells [1]: only mildly increased; proliferative response of cblb+/+ CD4+ T cells [1]: only mildly increased

Q: For “DRQIKIWFQNRRMKWKKEAVPLYAWYPNPSTFES (DRQIKIWFQNRRMKWKKEAVPLYAW[pY]PNPSTFES; listed as Homo sapiens) [H2]”, which “effects on proliferation, IFN-γ and CD69 of human T cells” value ([6]; scrambled control, compared with H1) is on record?
A: The value was “Slight effects”.

Q: How did the “BM-DC mediated Candida albicans killing in the presence of inhibitor” value [3] turn out when `O=C(N/N=C/c1ccc(O)c(O)c1)c1cc2ccccc2cc1O` [Dynasore] was run?
A: Its value is “abrogated”.

Q: With “DRQIKIWFQNRRMKWKK [Antennapedia peptide, cell penetrating peptide derived from the Drosophila Antennapedia homeodomain, used alone as control]” as the compound, how does the “ROS production by BM-DC in response to Candida albicans stimulation” value [7] read?
A: Its value is “did not affect”.

Q: And the “fungicidal activity (killing capacity) of BM-DC upon Candida albicans infection” value ([3]; 24 h co-culture, 100 μM peptide)?
A: The value was “did not affect”.

Q: And the morbidity or mortality [8]?
A: Its morbidity or mortality is “did not affect”.

Q: How did the “activation marker CD69 on T cells” value ([6]; percentage of CD69+ of total CD4+ cells, versus untreated cells) turn out when “DRQIKIWFQNRRMKWKKSTVSFNPYEPELAPWA (DRQIKIWFQNRRMKWKKSTVSFNP[pY]EPELAPWA; listed as Homo sapiens) [H1]” was run?
A: The value was “dose dependent upregulation”.

Q: And the “proliferative response of human CD4+ T cells” value ([6]; plate bound CD3/CD28 antibodies, 3 days, CFSE dilution)?
A: The value was “dose dependent significant increase”.

Q: What about the “production of IFN-γ by CD4+ T cells” value ([6]; supernatants of proliferation assay, ELISA) of the same compound?
A: The value was “increased significantly”.

Q: What about the “proliferative response of human CD8+ T cells” value [9] of the same compound?
A: Its value is “dose dependent significant increase”.
